# Biological target: α-glucosidase (Saccharomyces cerevisiae, UniProt P53341)
# Assay: Inhibition assay of α-glucosidase activity (p-nitrophenyl α-D-glucopyranoside substrate, absorbance at 405 nm)
# Assay type: biochemical
# Conditions: Mean ± SE, phosphate buffer pH 6.8, 37 °C, 30 min, NI: No Inhibition
# Description: Methanol and formic acid (HPLC grade) were purchased from Merck (Darmstadt, Germany). The ultra-pure water was purified using a Millipore Milli Q-Plus system (Millipore, Bedford, MA, USA). The α-glucosidase and p-nitrophenyl α-D-glucopyranoside were purchased from Sigma (St. Louis, USA). The enzymatic reaction results were detected on a SpectraMax M5 (Molecular Devices, San Jose, CA, USA).
# The inhibition assay of α-glucosidase was measured by the method as described previously. Briefly, a total volume of 150 µL solution consisting of 100 µL phosphate buffer (0.1 M, pH 6.8), 20 µL α-glucosidase (2.4 unit/mg), 20 µL p-nitrophenyl α-D-glucopyranoside and 10 µL different concentration of test sample (12.5–500 µg/mL), was incubated for 30 min under the temperature of 37 °C, then the reaction was stopped by adding 80 µL 0.1 mM Na2CO3. The results were detected under the wavelength of 405 nm on a SpectraMax M5 (Molecular Devices, San Jose, CA, USA). The controlled sample used solvent instead of triterpenoids and the blank sample used buffer instead of α-glucosidase, respectively. The inhibition activity α-glucosidase was calculated by the following equation:Inhibition (%) = [1 − (As − Asb)/(Ac − Acb)] × 100%(2)
# Herein, As, Asb, Ac and Acb are absorption of the test sample, sample blank, control and control blank, respectively. Their half maximal inhibitory concentration (IC50) were calculated and compared.
# Chain of α-glucosidase (P53341 whole entry): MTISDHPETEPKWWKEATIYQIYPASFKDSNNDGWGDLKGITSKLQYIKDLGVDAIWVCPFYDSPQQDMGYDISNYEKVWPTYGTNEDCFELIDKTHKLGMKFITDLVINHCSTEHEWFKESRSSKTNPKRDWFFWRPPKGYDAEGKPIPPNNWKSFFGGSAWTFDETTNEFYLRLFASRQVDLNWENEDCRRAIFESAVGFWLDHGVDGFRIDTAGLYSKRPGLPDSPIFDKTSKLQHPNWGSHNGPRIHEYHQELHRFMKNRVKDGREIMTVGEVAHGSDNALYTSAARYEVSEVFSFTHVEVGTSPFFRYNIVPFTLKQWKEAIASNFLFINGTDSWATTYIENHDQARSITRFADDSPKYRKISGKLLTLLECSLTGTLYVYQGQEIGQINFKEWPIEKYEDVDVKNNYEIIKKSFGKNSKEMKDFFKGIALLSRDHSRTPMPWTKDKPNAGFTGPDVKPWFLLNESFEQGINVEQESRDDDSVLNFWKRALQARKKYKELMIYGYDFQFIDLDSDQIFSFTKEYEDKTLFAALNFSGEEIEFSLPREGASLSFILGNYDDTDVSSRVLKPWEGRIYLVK
row,SMILES,IC50 (n = 3) against α-Glucosidase
1,"C[C@H]1[C@H](C)CC[C@]2(C(=O)O)CC[C@]3(C)C(=CC[C@@H]4[C@@]5(C)C[C@@H](O)[C@H](OC(=O)/C=C\c6ccc(O)cc6)C(C)(C)[C@@H]5CC[C@]43C)[C@H]12 (relative stereo) [Compound 5, 3β-O-cis-p-coumaroyl-2α-hydroxy-urs-12-en-28-oic acid]",1.54 ± 0.15 µg/mL
2,"C[C@H]1[C@H](C)CC[C@]2(C(=O)O)CC[C@]3(C)C(=CCC4[C@@]5(C)C[C@@H](O)[C@H](OC(=O)/C=C/c6ccc(O)cc6)C(C)(C)C5CC[C@]43C)[C@H]12 (relative stereo) [Compound 7, 3β-O-trans-p-coumaroyl-2α-hydroxy-urs-12-en-28-oic acid]",2.12 ± 0.15 µg/mL
3,"C[C@H]1[C@H](C)CC[C@]2(C(=O)O)CC[C@]3(C)C(=CC[C@@H]4[C@@]5(C)C[C@@H](O)[C@H](O)[C@@](C)(CO)[C@@H]5CC[C@]43C)[C@H]12 [Compound 1, asiatic acid]",no inhibition activity
4,"CC1(C)CCC2(C(=O)O)CCC3(C)C(=CCC4C5(C)CC(O)C(OC(=O)C=Cc6ccc(O)cc6)C(C)(C)C5CCC43C)C2C1 (stereo not drawn) [Compound 4, 3β-O-cis-p-coumaroyl-2α-hydroxy-olean-12-en-28-oic acid]",2.25 ± 0.28 µg/mL
5,"CC1(C)CCC2(C(=O)O)CCC3(C)C(=CCC4C5(C)CC(O)C(OC(=O)C=Cc6ccc(O)cc6)C(C)(C)C5CCC43C)C2C1 (stereo not drawn) [Compound 6, 3β-O-trans-p-coumaroyl-2α-hydroxy-olean-12-en-28-oic acid]",1.93 ± 0.14 µg/mL

# From article PMC7143969, “Simultaneous Determination of α-Glucosidase Inhibitory Triterpenoids in Psidium guajava Using HPLC–DAD–ELSD and Pressurized Liquid Extraction” (Molecules, 2020)
